Experimental data: PubChem BioAssay (NCI)
Values joined by “and” are separate entries in the source; they are usually repeats but may differ in a detail not shown here. Equal values may be shown once.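 Each compound was tested at five concentrations against cells in 96-well plates for 48 hours. The concentration for 50% growth inhibition is given as GI50. Definition used: TGI = concentration required for complete inhibition of growth.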

How the values were obtained:
Assay in all cases: NCI-60 cell line screen, 48 h
ACHN renal = system: ACHN renal
HCT-116 colon = system: HCT-116 colon
HT29 colon = system: HT29 colon
K-562 leukemia = system: K-562 leukemia
MALME-3M melanoma = system: MALME-3M melanoma
NCI-H522 lung = system: NCI-H522 lung
SK-MEL-2 melanoma = system: SK-MEL-2 melanoma
SK-MEL-28 melanoma = system: SK-MEL-28 melanoma
SK-OV-3 ovarian = system: SK-OV-3 ovarian
SW-620 colon = system: SW-620 colon

O=S(=O)(CCOCc1ccc(-c2ccc3ncnc(Nc4ccc(OCc5cccc(F)c5)c(Cl)c4)c3c2)o1)c1ccccc1
GI50 (ACHN renal): 1.86 µM
TGI (ACHN renal): > 25 µM
GI50 (HCT-116 colon): > 25 µM
TGI (HCT-116 colon): > 25 µM
GI50 (HT29 colon): > 25 µM
TGI (HT29 colon): > 25 µM
GI50 (K-562 leukemia): > 25 µM
TGI (K-562 leukemia): > 25 µM
GI50 (MALME-3M melanoma): > 25 µM
TGI (MALME-3M melanoma): > 25 µM
GI50 (NCI-H522 lung): > 25 µM
TGI (NCI-H522 lung): > 25 µM
GI50 (SK-MEL-2 melanoma): > 25 µM
TGI (SK-MEL-2 melanoma): > 25 µM
GI50 (SK-MEL-28 melanoma): > 25 µM
TGI (SK-MEL-28 melanoma): > 25 µM
GI50 (SK-OV-3 ovarian): 0.143 µM
TGI (SK-OV-3 ovarian): > 25 µM
GI50 (SW-620 colon): > 25 µM
TGI (SW-620 colon): > 25 µM

NC(=O)c1cccc(Nc2nccc(Nc3cccc(F)c3)n2)c1
GI50 (ACHN renal): 8.83 µM
TGI (ACHN renal): > 25 µM
GI50 (HCT-116 colon): 9.1 µM
TGI (HCT-116 colon): > 25 µM
GI50 (HT29 colon): 6.98 µM
TGI (HT29 colon): > 25 µM
GI50 (K-562 leukemia): 8.13 µM
TGI (K-562 leukemia): > 25 µM
GI50 (MALME-3M melanoma): 10.3 µM
TGI (MALME-3M melanoma): > 25 µM
GI50 (NCI-H522 lung): 5.82 µM
TGI (NCI-H522 lung): > 23.8 µM
GI50 (SK-MEL-2 melanoma): 7.37 µM
TGI (SK-MEL-2 melanoma): 24.4 µM
GI50 (SK-MEL-28 melanoma): 8.71 µM
TGI (SK-MEL-28 melanoma): > 25 µM
GI50 (SK-OV-3 ovarian): 5.85 µM
TGI (SK-OV-3 ovarian): 17.2 µM
GI50 (SW-620 colon): 7.11 µM
TGI (SW-620 colon): > 24 µM

COc1c(Br)cc(Br)c(OC)c1-c1[nH]c(Br)c(Br)c1Br
TGI (ACHN renal): 17.1 µM
TGI (HCT-116 colon): 12.3 µM
TGI (HT29 colon): 18.3 µM
TGI (K-562 leukemia): 15 µM
TGI (MALME-3M melanoma): 16.6 µM
TGI (NCI-H522 lung): 7.25 µM
TGI (SK-MEL-2 melanoma): 13.7 µM
TGI (SK-MEL-28 melanoma): 20 µM
TGI (SK-OV-3 ovarian): 28.1 µM
TGI (SW-620 colon): 21.7 µM

CC1(C)N=C(N)N=C(N)N1c1ccc(OCC(=O)Nc2ccccc2)c(Cl)c1
GI50 (ACHN renal): 62.9 µM
TGI (ACHN renal): > 100 µM
GI50 (HCT-116 colon): 0.502 µM
TGI (HCT-116 colon): > 100 µM
GI50 (HT29 colon): 0.333 µM
TGI (HT29 colon): > 100 µM
GI50 (K-562 leukemia): 0.446 µM
TGI (K-562 leukemia): > 100 µM
GI50 (MALME-3M melanoma): > 71.4 µM
TGI (MALME-3M melanoma): > 100 µM
GI50 (NCI-H522 lung): 3.01 µM
TGI (NCI-H522 lung): > 100 µM
GI50 (SK-MEL-2 melanoma): > 93.9 µM
TGI (SK-MEL-2 melanoma): > 100 µM
GI50 (SK-MEL-28 melanoma): > 58.8 µM
TGI (SK-MEL-28 melanoma): > 100 µM
GI50 (SK-OV-3 ovarian): > 60.9 µM
TGI (SK-OV-3 ovarian): > 100 µM
GI50 (SW-620 colon): 0.456 µM
TGI (SW-620 colon): > 100 µM

CC1(c2ccccc2)CC(c2ccccc2)=NO1 (stereo not drawn)
TGI (ACHN renal): > 100 µM
TGI (HCT-116 colon): > 100 µM
TGI (HT29 colon): > 100 µM
TGI (K-562 leukemia): > 100 µM
TGI (MALME-3M melanoma): > 100 µM
TGI (NCI-H522 lung): > 100 µM
TGI (SK-MEL-2 melanoma): > 100 µM
TGI (SK-MEL-28 melanoma): > 100 µM
TGI (SK-OV-3 ovarian): > 100 µM
TGI (SW-620 colon): > 100 µM

Cc1nnc(N/N=C(/C(=O)C(C#N)c2ccccc2)C(C#N)c2ccccc2)n1N (stereo not drawn)
TGI (ACHN renal): 65.5 µM
TGI (HCT-116 colon): > 55.7 µM
TGI (HT29 colon): > 65.7 µM
TGI (K-562 leukemia): 27.9 µM
TGI (MALME-3M melanoma): 9.29 µM
TGI (NCI-H522 lung): 56.1 µM
TGI (SK-MEL-2 melanoma): 12.5 µM
TGI (SK-MEL-28 melanoma): 36.1 µM
TGI (SK-OV-3 ovarian): > 100 µM
TGI (SW-620 colon): 8.19 µM

O=S1(=O)NCCCN1CCNc1nccc(-c2c(-c3cccc(O)c3)nc3sccn23)n1
GI50 (ACHN renal): 11.8 µM
TGI (ACHN renal): > 100 µM
GI50 (HCT-116 colon): 5.26 µM
TGI (HCT-116 colon): 38.4 µM
GI50 (HT29 colon): 7.65 µM
TGI (HT29 colon): > 100 µM
GI50 (K-562 leukemia): 21.6 µM
TGI (K-562 leukemia): > 100 µM
GI50 (MALME-3M melanoma): 0.108 µM
TGI (MALME-3M melanoma): 3.26 µM
GI50 (NCI-H522 lung): 14.6 µM
TGI (NCI-H522 lung): 80.7 µM
GI50 (SK-MEL-2 melanoma): 2.57 µM
TGI (SK-MEL-2 melanoma): 9.66 µM
GI50 (SK-MEL-28 melanoma): 0.245 µM
TGI (SK-MEL-28 melanoma): > 100 µM
GI50 (SK-OV-3 ovarian): 5.93 µM
TGI (SK-OV-3 ovarian): 63.8 µM
GI50 (SW-620 colon): 33 µM
TGI (SW-620 colon): > 100 µM

CCC1=C[C@@H]2CN(C1)Cc1c([nH]c3ccccc13)[C@@](C(=O)OC)(c1cc3c(cc1OC)N(C)[C@H]1[C@@](O)(C(=O)OC)[C@H](OC(C)=O)[C@]4(CC)[C@@H]5C[C@@H]5CN5CC[C@]31[C@@H]54)C2
GI50 (ACHN renal): 0.0191 µM and 0.168 µM
TGI (ACHN renal): 7.79 µM and 26.2 µM
GI50 (HCT-116 colon): < 0.005 µM
TGI (HCT-116 colon): 5.18 µM and 13 µM
GI50 (HT29 colon): < 0.005 µM
TGI (HT29 colon): 0.8 µM and 1.06 µM
GI50 (K-562 leukemia): < 0.005 µM
GI50 (MALME-3M melanoma): < 0.005 µM
TGI (MALME-3M melanoma): 1.29 µM
GI50 (NCI-H522 lung): < 0.005 µM
TGI (NCI-H522 lung): < 0.005 µM
GI50 (SK-MEL-2 melanoma): < 0.005 µM
TGI (SK-MEL-2 melanoma): 2.07 µM
GI50 (SK-MEL-28 melanoma): < 0.005 µM
TGI (SK-MEL-28 melanoma): 7.96 µM
GI50 (SK-OV-3 ovarian): < 0.005 µM
GI50 (SW-620 colon): < 0.005 µM
TGI (SW-620 colon): 9.16 µM and 21 µM

OC(c1ccc(Br)cc1)(c1cccs1)C1CC1 (stereo not drawn)
TGI (ACHN renal): 76.3 µM
TGI (HCT-116 colon): 33.3 µM
TGI (HT29 colon): 68 µM
TGI (K-562 leukemia): > 100 µM
TGI (MALME-3M melanoma): 41.5 µM
TGI (NCI-H522 lung): 40.9 µM
TGI (SK-MEL-2 melanoma): 40.4 µM
TGI (SK-MEL-28 melanoma): 51.3 µM
TGI (SK-OV-3 ovarian): > 100 µM
TGI (SW-620 colon): 87.5 µM

CCCCCCCCCCN=C(c1ccc(N(C)C)cc1)c1ccc(N(C)C)cc1
GI50 (ACHN renal): 2.47 µM
TGI (ACHN renal): > 73.9 µM
GI50 (HCT-116 colon): 0.423 µM
TGI (HCT-116 colon): 32.9 µM
GI50 (HT29 colon): 0.351 µM
TGI (HT29 colon): 18.5 µM
GI50 (K-562 leukemia): 0.207 µM
TGI (K-562 leukemia): > 100 µM
GI50 (MALME-3M melanoma): 16.6 µM
TGI (MALME-3M melanoma): 65.8 µM
GI50 (NCI-H522 lung): 0.352 µM
TGI (NCI-H522 lung): 5.94 µM
GI50 (SK-MEL-2 melanoma): 0.492 µM
TGI (SK-MEL-2 melanoma): 33.2 µM
GI50 (SK-MEL-28 melanoma): 7.39 µM
TGI (SK-MEL-28 melanoma): > 100 µM
GI50 (SK-OV-3 ovarian): 1.44 µM
TGI (SK-OV-3 ovarian): 40.3 µM
GI50 (SW-620 colon): 0.425 µM
TGI (SW-620 colon): > 100 µM

CCN(CC)CCNC(=O)c1cn2ncnc(Oc3ccc(NC(=O)Nc4ccc(Cl)c(C(F)(F)F)c4)c(F)c3)c2c1C
GI50 (ACHN renal): 1.68 µM
TGI (ACHN renal): 3.04 µM
GI50 (HCT-116 colon): 1.48 µM
TGI (HCT-116 colon): 3.18 µM
GI50 (HT29 colon): 0.834 µM
TGI (HT29 colon): 2.45 µM
GI50 (K-562 leukemia): 0.442 µM
TGI (K-562 leukemia): 2.28 µM
GI50 (MALME-3M melanoma): 1.15 µM
TGI (MALME-3M melanoma): 2.55 µM
GI50 (NCI-H522 lung): 2.03 µM
TGI (NCI-H522 lung): 4.13 µM
GI50 (SK-MEL-2 melanoma): 1.61 µM
TGI (SK-MEL-2 melanoma): 3.3 µM
GI50 (SK-MEL-28 melanoma): 1.47 µM
TGI (SK-MEL-28 melanoma): 2.79 µM
GI50 (SK-OV-3 ovarian): 1.66 µM
TGI (SK-OV-3 ovarian): 3.26 µM
GI50 (SW-620 colon): 1.91 µM
TGI (SW-620 colon): 3.5 µM

CCSc1nc(N)c2cn[nH]c2n1
GI50 (ACHN renal): 31.3 µM
TGI (ACHN renal): > 100 µM
GI50 (HCT-116 colon): 30.5 µM
TGI (HCT-116 colon): > 100 µM
GI50 (HT29 colon): 29.4 µM
TGI (HT29 colon): 81.9 µM
GI50 (K-562 leukemia): 37.3 µM
TGI (K-562 leukemia): > 100 µM
GI50 (MALME-3M melanoma): 31.2 µM
TGI (MALME-3M melanoma): 67 µM
GI50 (NCI-H522 lung): 62 µM
TGI (NCI-H522 lung): > 100 µM
GI50 (SK-MEL-2 melanoma): 47.3 µM
TGI (SK-MEL-2 melanoma): > 100 µM
GI50 (SK-MEL-28 melanoma): 33.2 µM
TGI (SK-MEL-28 melanoma): > 100 µM
GI50 (SK-OV-3 ovarian): 42.1 µM
TGI (SK-OV-3 ovarian): > 100 µM
GI50 (SW-620 colon): 31.7 µM
TGI (SW-620 colon): > 100 µM

CC(=O)OC1COC(n2c(=S)n(-c3ccccc3)c(=O)c3cc(Br)ccc32)C(OC(C)=O)C1OC(C)=O (stereo not drawn)
TGI (ACHN renal): > 100 µM
TGI (HCT-116 colon): > 100 µM
TGI (HT29 colon): > 100 µM
TGI (K-562 leukemia): > 100 µM
TGI (MALME-3M melanoma): > 100 µM
TGI (NCI-H522 lung): > 100 µM
TGI (SK-MEL-2 melanoma): > 100 µM
TGI (SK-MEL-28 melanoma): > 100 µM
TGI (SK-OV-3 ovarian): > 100 µM
TGI (SW-620 colon): > 100 µM
